Data set [1] in a line: Inhibition of farnesyl protein transferase assessed as transfer of [3H]farnesyl from [3H]farnesyl pyrophosphate to […].
For the next data set, the system named is NIH3T3. Kind of data set: Cytotoxicity against mouse H-Ras transformed NIH/3T3 cells by soft agar colony formation assay. Format: functional, cell-based.
A short description of data set [2]: (§1) AUC (0 to 6 hrs) in rat at 10 mg/kg. Format: ADME, organism-based, Plasma. More on the design: time < 6 hr, dose 10 mg/kg. The note with it: plasma.
The test system of the next data set is Rattus norvegicus. The description is as §1. Format: ADME, organism-based, Plasma. More on the design: time < 6 hr, dose 10 mg/kg. Conditions: in vivo, 6 h; call rule not given here.
The mark [3] stands for this setting: Mus musculus, NIH3T3, read-out: IC50.

Usually IC50 stands for the point on the concentration scale where inhibition reaches its midpoint. The AUC(0-t) is exposure summed from dosing to a finite time, without extrapolation to infinity. A high value points to high exposure. One may read the AUC as the area under the concentration-time curve, a measure of exposure. Higher therefore signals high exposure.

In the case of `Cn1cncc1[C@H](O)C1=Cc2cccnc2[C@@H](N2CCN(C(=O)OC3CCCC3)CC2)c2ccc(Cl)cc21`, the half-maximal inhibitory concentration (IC50) was 0.76 nM in data set [1] and 0.5 nM in the data set on NIH3T3 (setting [3]).
On the same counts, the results for `CC(C)OC(=O)N1CCN([C@H]2c3ccc(Cl)cc3C([C@@H](O)c3cncn3C)=Cc3cccnc32)CC1` are 0.75 nM and 0.5 nM.
Regarding `Cn1cncc1[C@H](O)C1=Cc2cccnc2[C@@H](N2CCN(C(=O)OC3CCCCC3)CC2)c2ccc(Cl)cc21`, the IC50 (in data set [1]; in the data set with NIH3T3 (setting [3])) was 1 nM in each case.
Consider `Cn1cncc1[C@H](O)C1=Cc2cccnc2[C@@H](N2CCN(C(=O)NC(C)(C)C)CC2)c2ccc(Cl)cc21`, for which the IC50 in data set [1] stood at 0.4 nM; with NIH3T3 (setting [3]), 0.5 nM.
Taken in the same sequence, the figures for `Cn1cncc1[C@H](O)C1=Cc2cccnc2[C@@H](N2CCN(C(=O)NC3CCCCC3)CC2)c2ccc(Cl)cc21` were 0.47 nM and 18 nM.
Take `Cn1cncc1CC1=Cc2cccnc2[C@H](N2CCN(C(=O)Nc3ccc(C#N)cc3)CC2)c2ccc(Cl)cc21`: the results for the IC50 (in data set [1]; with NIH3T3 (nih3t3)) were 9.6 nM and “Not Active”, respectively.
`Cn1cncc1[C@H](O)C1=Cc2cccnc2[C@@H](N2CCN(C(=O)OC(C)(C)C)CC2)c2ccc(Cl)cc21`: the IC50 in data set [1] was 0.38 nM; in the data set on NIH3T3 (setting [3]), 0.5 nM. In data set [2], this molecule showed an exposure AUC(0-t) at 6 h of 2.57 µM·h.
In the case of `CO[C@H](C1=Cc2cccnc2[C@@H](N2CCN(C(=O)OC(C)(C)C)CC2)c2ccc(Cl)cc21)c1cncn1C`, the results for the IC50 (in data set [1]; in the data set on NIH3T3 (setting [3])) were 4.8 nM and 10 nM, respectively.
On the same counts, the results for `N#Cc1ccc(NC(=O)N2CCN([C@H]3c4ccc(Cl)cc4C(Cc4cnc[nH]4)=Cc4cccnc43)CC2)cc1` are 0.31 nM and 4 nM.
On the same counts, the results for `Cn1cncc1CC1=Cc2cccnc2[C@@H](N2CCN(C(=O)Nc3ccc(C#N)cc3)CC2)c2ccc(Cl)cc21` are 0.29 nM and 0.5 nM.
On the same counts, the results for `CC(=O)O[C@H](C1=Cc2cccnc2[C@@H](N2CCN(C(=O)OC(C)(C)C)CC2)c2ccc(Cl)cc21)c1cncn1C` are 5.5 nM and 1 nM.
Turning to `Cn1cncc1[C@@H](O)C1=Cc2cccnc2[C@@H](N2CCN(C(=O)OC(C)(C)C)CC2)c2ccc(Cl)cc21`, the IC50 was 12 nM in data set [1] and “Not Active” in the data set on NIH3T3 (nih3t3).
On to `CO[C@@H](C1=Cc2cccnc2[C@@H](N2CCN(C(=O)OC(C)(C)C)CC2)c2ccc(Cl)cc21)c1cncn1C`, for which the figures for the half-inhibitory concentration (IC50) (in data set [1]; in the data set with NIH3T3 (setting [3])) were 2.1 nM and 4 nM, respectively.
On the same counts, the results for `Cn1cncc1[C@H](O)C1=Cc2cccnc2[C@@H](N2CCN(C(=O)OC3(C)CCCCC3)CC2)c2ccc(Cl)cc21` are 0.3 nM and 1 nM.
On the same counts, the results for `Cn1cncc1[C@H](O)C1=Cc2cccnc2[C@@H](N2CCN(C(=O)NCc3ccccc3)CC2)c2ccc(Cl)cc21` are 0.13 nM and 2.7 nM.
Turning to `Cn1cncc1[C@H](O)C1=Cc2cccnc2[C@@H](N2CCN(C(=O)Nc3ccc(C#N)cc3)CC2)c2ccc(Cl)cc21`, the IC50 (in data set [1]; in the data set with NIH3T3 (setting [3])) was 0.5 nM each time. The same molecule showed an AUC with Rattus norvegicus of 0.1 µM·h.

(Values after ChEMBL document CHEMBL1159116, “Discovery of C-imidazole azaheptapyridine FPT inhibitors” (Bioorg Med Chem Lett, 2010).)
